Experimental data: publication PMC3077032 (Clinical cancer research : an official journal of the …, 2011)
Where two headings read alike, the source gives them in different places.

Columns and labels:
[1] = in vivo
clinical = details: human, plasma (sorafenib); sample for sirolimus not named, oral
[2] = cited from earlier work
[3] = for AUC, median relative difference (range) after initiation of combination therapy / Cmax, median relative difference (range) after initiation of combination therapy: combination with the interacting drug vs drug alone, n=6; for Ka, population estimate: one-compartment NONMEM model, n = 6 per drug
[4] = day 28 combination vs day 14 alone
CYP3A4 = details: cited from earlier work
[5] = daily oral dosing, phase I trial in cancer patients

| AUC, median relative difference (range) after initiation of combination therapy [1] | Cmax, median relative difference (range) after initiation of combination therapy ([4]; listed as Sunitinib) | Cmax, median relative difference (range) after initiation of combination therapy ([3]; listed as Sorafenib) | Structure (SMILES) | Vd/F (clinical) [L] | Dose well tolerated [2, 5] [mg] | Maximum tolerated dose [2, 5] [mg] | Dose administered without dose limiting toxicity ([2]; weekly dosing, ongoing study at the University of Chicago) [mg] | AUC, median relative difference (range) after initiation of combination therapy [3] | Cmax, median relative difference (range) after initiation of combination therapy [3] [%] | Cmax, median relative difference (range) after initiation of combination therapy ([3]; listed as Sirolimus) | Ka, population estimate [3] [h⁻¹] | AUC, median relative difference (range) after initiation of combination therapy [4] | Cmax, median relative difference (range) after initiation of combination therapy [4] [%] | Cmax, median relative difference (range) after initiation of combination therapy ([4]; listed as Sirolimus) | Effect of inhibitors of CYP3A4 on pharmacokinetics (CYP3A4) |
| --- | --- | --- | --- | --- | --- | --- | --- | --- | --- | --- | --- | --- | --- | --- | --- |
| 61.6 (−79.7, 1031.2) % | – | – | CCNCCNC(=O)c1c(C)[nH]c(/C=C2\C(=O)Nc3ccc(F)cc32)c1C [SU12662] | – | – | – | – | – | – | – | – | – | – | – | – |
| – | – | – | CO[C@H]1C[C@@H]2CC[C@@H](C)[C@@](O)(O2)C(=O)C(=O)N2CCCC[C@H]2C(=O)O[C@H]([C@H](C)C[C@@H]2CC[C@@H](O)[C@H](OC)C2)CC(=O)[C@H](C)/C=C(\C)[C@@H](O)[C@@H](OC)C(=O)[C@H](C)C[C@H](C)/C=C/C=C/C=C/1C [sirolimus, Sirolimus] | 138 | 3 | 6 | 90 | 43.7 (10.5, 84.7) % | 3.9 | 3.9 (1.3, 11.0) % | 2.01 | −47.7 (−75.4, 1394.8) % | −29.8 | −29.8 (−77.4, 28.8) % | – |
| – | 19.6 (−23.5, 45.4) % | – | CCN(CC)CCNC(=O)c1c(C)[nH]c(/C=C2\C(=O)Nc3ccc(F)cc32)c1C [sunitinib, Sunitinib] | – | – | – | – | – | – | – | – | 54.3 (−34.3, 232.8) % | 19.6 | – | only modestly affected |
| – | – | −40.7 (−87.0, 351.2) % | CNC(=O)c1cc(Oc2ccc(NC(=O)Nc3ccc(Cl)c(C(F)(F)F)c3)cc2)ccn1 [sorafenib, Sorafenib] | 807 | – | – | – | 6.1 (−17.3, 22.0) % | −40.7 | – | 1.07 | – | – | – | only modestly affected |
